Measured values: patent US6043212A, “Recombinant C140 receptor, its agonists and antagonists, and nucleic acids encoding the receptor” (COR Therapeutics, Inc., priority 1995, dated 2000)
Positions count from the first letter of the chain named. Peptide text beside a SMILES is read from it.

Experiments:
[1] = target: T1, wild-type mouse C140 receptor (Mus musculus, UniProt P55086); test: 45Ca release by Xenopus oocytes expressing wild-type mouse C140 receptor; format: cell-based
T1 construct: Native receptors were produced by cloning the coding region of the receptor gene; expressed in transfected cells; host or cells: Xenopus laevis oocytes injected with capped cRNA from pSG-5 C140
T1 sequence (P55086 32-399 limits assumed): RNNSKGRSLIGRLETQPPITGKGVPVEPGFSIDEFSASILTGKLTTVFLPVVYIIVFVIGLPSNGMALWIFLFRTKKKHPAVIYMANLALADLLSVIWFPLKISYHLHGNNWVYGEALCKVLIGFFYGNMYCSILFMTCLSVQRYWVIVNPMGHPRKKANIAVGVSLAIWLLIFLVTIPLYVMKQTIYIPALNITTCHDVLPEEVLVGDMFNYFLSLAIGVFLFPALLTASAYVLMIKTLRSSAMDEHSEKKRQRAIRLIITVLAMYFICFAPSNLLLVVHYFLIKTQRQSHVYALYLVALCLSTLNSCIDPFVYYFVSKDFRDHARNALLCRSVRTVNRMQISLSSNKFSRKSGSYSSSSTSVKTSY
Procedure: Agonist-induced increases in ^45 Ca release by oocytes expressing cRNA encoding C140 receptor or other recombinant cells producing C140 receptor are assessed by published techniques (Williams, J. A., et al., Proc Natl Acad Sci USA (1988) 85:4939-4943). Briefly, intracellular calcium pools are labeled by incubating groups of 30 oocytes in 300 μl calcium-free modified Barth's solution (MBSH) containing 50 μCi ^45 CaCl2 (10-40 mCi/mg Ca; Amersham) for 4 hours at RT. The labeled oocytes or cells are washed, then incubated in MBSH II without antibiotics for 90 minutes. Groups of 5 oocytes are selected and placed in individual wells in a 24-well tissue culture plate (Falcon 3047) containing 0.5 ml/well MBSH II without antibiotics. This medium is removed and replaced with fresh medium every 10 minutes; the harvested medium is analyzed by scintillation counting to determine ^45 Ca released by the oocytes during each 10-minute incubation. The 10-minute incubations are continued until a stable baseline of ^45 Ca release per unit time is achieved. Two additional 10-minute collections are obtained, then test medium including agonist is added and agonist-induced ^45 Ca release determined.
Oocytes from Xenopus laevis were harvested and prepared using published techniques (Coleman, A., in Hames, B. D., and Higgins, S. J., eds, Transcription and Translation: A Practical Approach, IRL Press, pp. 271-302; Williams, J. A., et al. Proc Natl Acad Sci USA (1988) 85:4939-4943]. To remove follicular cells, oocytes were incubated for 1.5 h with shaking in calcium-free Barth's containing 2 mg/ml each of collagenase 1A and hyaluronidase 1S. The oocytes were then washed five times in regular Barth's and incubated at 18° C. in Barth's medium containing 100 U/ml penicillin, 100 μg/ml streptomycin, and 2.5 mM sodium pyruvate. Stage V oocytes were selected and injected with 30 nl of cRNA (0.33 μg/μl water) or water alone, and then incubated with 0.25 ml of medium in groups of four/well in a 96-well culture plate. After 36 hours the oocytes were incubated with ^45 Ca (250 μCi/ml). After 12 h incubation the oocytes were washed and 0.2 ml of medium added and replaced every five minutes. The harvested medium was analyzed by scintillation counting. After five replacements to determine the baseline release of ^45 Ca, test medium with the agonist, e.g. SLIGRL (SEQ ID NO: 23), was added and the evoked ^45 Ca-release determined.
Oocytes were injected with capped cRNA (ca 10 ng) encoding wild-type mouse C140 receptor (WT) or either of the three mutant receptors 35Pro, 35Arg and 35His. After 36 hours, cRNA-injected and control water-injected, oocytes were loaded with ^45 Ca, and 12 hours thereafter peptide or trypsin-induced ^45 Ca release were determined as described above. The peptide SLIGRL (SEQ ID NO: 23) was added at 100 μM, and trypsin at 300 pM. The stimulation with the peptide was done on the same group of oocytes after the stimulation with trypsin. The data shown in Table 1 represent the mean of three replicate determinations, and denotes the increase compared to oocytes injected with water.
Various peptides were tested at 100 μM in the assay above using wild-type mouse C140 receptor, expressed in oocytes.

[2] = target: T2, mutant C140 receptor 35Arg (serine-35 replaced with arginine) (Mus musculus, UniProt P55086, S39R); test: 45Ca release by Xenopus oocytes expressing mutant C140 receptor 35Arg; format: cell-based; settings: 35Arg receptor
T2 construct: Site-directed mutagenesis was employed to construct mutant receptors in the pSG-5; expressed in transfected cells; host or cells: Xenopus laevis oocytes injected with capped cRNA
T2 sequence (P55086 32-399 S39R limits assumed): T1 sequence (P55086 32-399 limits assumed) with S8R
Source text: Both native and mutant C140 receptors were produced in oocytes and activated with a peptide mimicking the new amino-terminus", or by the proteolytic enzyme trypsin (which cleaves the extracellular region). Native receptors were produced by cloning the coding region of the receptor gene, using the polymerase chain reaction, into the expression vector pSG-5 (Green, S. et al., Nucleic Acid Res (1988) 16:369). The orientation and integrity of the cloned coding region was verified by determining the nucleotide sequence with the Sanger chain-termination method. Site-directed mutagenesis was employed to construct mutant receptors in the pSG-5. […]
Oocytes from Xenopus laevis were harvested and prepared using published techniques (Coleman, A., in Hames, B. D., and Higgins, S. J., eds, Transcription and Translation: A Practical Approach, IRL Press, pp. 271-302; Williams, J. A., et al. Proc Natl Acad Sci USA (1988) 85:4939-4943]. To remove follicular cells, oocytes were incubated for 1.5 h with shaking in calcium-free Barth's containing 2 mg/ml each of collagenase 1A and hyaluronidase 1S. The oocytes were then washed five times in regular Barth's and incubated at 18° C. in Barth's medium containing 100 U/ml penicillin, 100 μg/ml streptomycin, and 2.5 mM sodium pyruvate. […] The harvested medium was analyzed by scintillation counting. […]

| Fold increase in 45Ca ([1]; WT receptor, trypsin at 300 pM, increase compared to water-injected oocytes, mean of three) | Fold increase in 45Ca ([2]; trypsin at 300 pM, increase compared to water-injected oocytes) | Molecule | Fold increase in 45Ca ([1]; Table 2, peptides at 100 μM, wild-type mouse C140 receptor in oocytes) | Fold increase in 45Ca ([1]; WT receptor, peptide at 100 μM, same oocytes after trypsin stimulation, compared to water-injected oocytes) | Fold increase in 45Ca ([2]; peptide at 100 μM, same oocytes after trypsin stimulation) |
| --- | --- | --- | --- | --- | --- |
| – | – | CC[C@H](C)[C@H](NC(=O)[C@H](CC(C)C)NC(=O)[C@@H](N)CO)C(=O)NCC(=O)N[C@@H](CCCNC(=N)N)C(=O)N[C@@H](CC(C)C)C(=O)O [SLIGRL] (H-SLIGRL-OH) | 15 fold | 11 fold | 15 fold |
| 6.6 fold | 0 fold | trypsin | – | – | – |
